The record followed here is PubChem BioAssay (NCI).

Some test systems named below: SK-MEL-5 melanoma; UO-31 renal; RPMI-8226 leukemia; SF-268 CNS; SNB-75 CNS; M14 melanoma; EKVX NSCLC; CCRF-CEM leukemia; OVCAR-4 ovarian; NCI-H23 lung; COLO 205 colon; SNB-19 CNS; HOP-62 NSCLC.
Holding throughout (test): growth of human tumour cells (NCI), 48 h

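Cells were grown in 96-well plates and exposed to each compound for 48 hours at five concentrations; endpoints were interpolated linearly between bracketing concentrations, or set to the highest concentration if not reached. Here, GI50 denotes the concentration required for 50% inhibition of growth. TGI is the concentration that stops growth completely.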

For `S=c1sc2nc(Cl)nc(Cl)c2s1`, the TGI with SK-MEL-5 melanoma stood at 21.6 µM; with UO-31 renal, 25.1 µM; in the experiment with RPMI-8226 leukemia, 9.67 µM; in the experiment with SF-268 CNS, 34.4 µM; in the experiment with SNB-75 CNS it was 34.8 µM; in the experiment with M14 melanoma, 16.9 µM. Further, the TGI was 31.8 µM in the experiment on EKVX NSCLC; more than 46.6 µM in the experiment on CCRF-CEM leukemia; 30.6 µM with OVCAR-4 ovarian; 39.3 µM with NCI-H23 lung; 20.4 µM with COLO 205 colon; 34.8 µM in the experiment with SNB-19 CNS. In the experiment on HOP-62 NSCLC, this compound displayed a TGI of 36.9 µM.
Regarding `COc1cc2c(cc1OC)C(=O)C(C1=C(SC(=N)N)C(=O)c3cc(OC)c(OC)cc31)C2` (centres undefined), the TGI in the experiment with SK-MEL-5 melanoma, in the experiment with UO-31 renal, in the experiment with RPMI-8226 leukemia, with SF-268 CNS, in the experiment with SNB-75 CNS and in the experiment with M14 melanoma was more than 100 µM each time. Moreover, the TGI with EKVX NSCLC, with CCRF-CEM leukemia, in the experiment on OVCAR-4 ovarian, in the experiment with NCI-H23 lung, with COLO 205 colon and in the experiment on SNB-19 CNS was more than 100 µM in each case. This compound also came in with a TGI in the experiment on HOP-62 NSCLC of more than 100 µM.
Regarding `O=C=NCCCCCCN1C(=O)N2C(c3ccccc3)N(CCCCCCN=C=O)C(=O)N2C1c1ccccc1` (centres undefined), the TGI with SK-MEL-5 melanoma, in the experiment with UO-31 renal, in the experiment with RPMI-8226 leukemia, with SF-268 CNS, in the experiment with SNB-75 CNS and with M14 melanoma was more than 100 µM each time. Moreover, the TGI with EKVX NSCLC, in the experiment with CCRF-CEM leukemia, in the experiment with OVCAR-4 ovarian, in the experiment on NCI-H23 lung, in the experiment with COLO 205 colon and in the experiment with SNB-19 CNS was more than 100 µM in each case. The TGI in the experiment with HOP-62 NSCLC was more than 100 µM.
Consider `Cc1c(C)c(S(=O)(=O)N(CCCN)OCCCN)c(C)c2c1OC(C)(C)C2`, for which the TGI is more than 100 µM in the experiment with SK-MEL-5 melanoma; more than 100 µM in the experiment on UO-31 renal; more than 100 µM in the experiment on RPMI-8226 leukemia; more than 100 µM in the experiment on SF-268 CNS; 59.5 µM in the experiment on SNB-75 CNS; 34.1 µM in the experiment with M14 melanoma. The TGI with EKVX NSCLC is 31.3 µM; in the experiment on CCRF-CEM leukemia, 90 µM; in the experiment on OVCAR-4 ovarian, more than 100 µM; in the experiment with NCI-H23 lung it was more than 100 µM; in the experiment with COLO 205 colon it was 32.5 µM; in the experiment on SNB-19 CNS, 63.5 µM. The compound also registered a TGI in the experiment with HOP-62 NSCLC of more than 100 µM.
Take `C=CCNC1=C2C[C@@H](C)C[C@@H](OC)[C@H](OC(=O)CN)[C@H](C)/C=C(\C)[C@@H](OC(N)=O)[C@H](OC)/C=C\C=C(/C)C(=O)NC(=CC1=O)C2=O`: the TGI in the experiment on SK-MEL-5 melanoma was 17.9 µM; in the experiment with UO-31 renal, 19.7 µM; in the experiment with RPMI-8226 leukemia, more than 52.3 µM; in the experiment on SF-268 CNS, 29.7 µM; in the experiment on SNB-75 CNS it was 9.59 µM; with M14 melanoma it was 22.3 µM. The TGI with EKVX NSCLC is 21.7 µM; in the experiment with CCRF-CEM leukemia, more than 29.8 µM; in the experiment with OVCAR-4 ovarian, 29.2 µM; in the experiment on NCI-H23 lung, 21.3 µM; in the experiment on COLO 205 colon, 5.23 µM; in the experiment on SNB-19 CNS, 25.5 µM. The TGI in the experiment with HOP-62 NSCLC came to 19.9 µM.
On to `C=CCN(C)CN(C)c1nc(N(C)C)nc(N(C)C)n1`, for which the TGI in the experiment with SK-MEL-5 melanoma, in the experiment on UO-31 renal, in the experiment with RPMI-8226 leukemia, in the experiment on SF-268 CNS, in the experiment on SNB-75 CNS and in the experiment with M14 melanoma was more than 100 µM throughout. Moreover, the TGI in the experiment on EKVX NSCLC, in the experiment on CCRF-CEM leukemia, in the experiment on OVCAR-4 ovarian, in the experiment with NCI-H23 lung, with COLO 205 colon and in the experiment with SNB-19 CNS was more than 100 µM throughout. For the same compound, in the experiment with HOP-62 NSCLC, the TGI was more than 100 µM.
Regarding `Cn1c2cc(O)cc(O)c2c(=O)c2c([N+](=O)[O-])cccc21`, the TGI in the experiment with SK-MEL-5 melanoma, in the experiment on UO-31 renal, in the experiment on RPMI-8226 leukemia, with SF-268 CNS, in the experiment with SNB-75 CNS and with M14 melanoma was more than 100 µM each time. Besides, the TGI with EKVX NSCLC, with CCRF-CEM leukemia, in the experiment on OVCAR-4 ovarian, in the experiment on NCI-H23 lung, in the experiment on COLO 205 colon and in the experiment on SNB-19 CNS was more than 100 µM throughout. In the experiment with HOP-62 NSCLC, the TGI was more than 100 µM.
Turning to `CC1OC(OC2C(O)COC(OC3C(C)OC(OC4C(OC(=O)[C@]56CCC(C)(C)C[C@@H]5C5=CCC7[C@@]8(C)C[C@H](O)[C@H](OC9OC(CO)C(O)C(OC%10OC(CO)C(O)C(O)C%10O)C9O)[C@@](C)(CO)[C@@H]8CC[C@@]7(C)[C@]5(C)CC6)OCC(O)C4O)C(O)C3O)C2O)C(O)C(O)C1O` (some centres undefined), the TGI was 30.3 µM with SK-MEL-5 melanoma; 16 µM in the experiment on UO-31 renal; 51.8 µM with RPMI-8226 leukemia; 39.7 µM in the experiment on SF-268 CNS; 35 µM in the experiment with SNB-75 CNS; 26.3 µM in the experiment on M14 melanoma. Besides, the TGI is 26.1 µM in the experiment on EKVX NSCLC; 32.6 µM in the experiment with CCRF-CEM leukemia; 34.4 µM in the experiment with OVCAR-4 ovarian; 31 µM with NCI-H23 lung; 18.1 µM in the experiment with COLO 205 colon; 30.4 µM in the experiment on SNB-19 CNS. In the experiment on HOP-62 NSCLC, this compound showed a TGI of 28.8 µM.
`Clc1nc2n(c1/C=C/c1cccs1)CCS2`: the TGI in the experiment with SK-MEL-5 melanoma was 32.9 µM; with UO-31 renal it was more than 100 µM; in the experiment with RPMI-8226 leukemia it was 48.7 µM; in the experiment on SF-268 CNS, more than 100 µM; in the experiment on SNB-75 CNS, more than 100 µM; with M14 melanoma it was more than 100 µM. For the same compound, the TGI is more than 100 µM in the experiment with EKVX NSCLC; 46.6 µM with CCRF-CEM leukemia; more than 100 µM in the experiment on OVCAR-4 ovarian; more than 100 µM in the experiment with NCI-H23 lung; more than 100 µM with COLO 205 colon; more than 100 µM in the experiment with SNB-19 CNS. In the experiment with HOP-62 NSCLC, this compound displayed a TGI of more than 100 µM.
On to `O=c1cc(-c2ccccc2)oc2cc(OCCSCCCCCCCCCCSCCOc3ccc4c(=O)cc(-c5ccccc5)oc4c3)ccc12`, for which the TGI in the experiment on SK-MEL-5 melanoma, with UO-31 renal, with RPMI-8226 leukemia, with SF-268 CNS, in the experiment with SNB-75 CNS and in the experiment on M14 melanoma was more than 100 µM in each case. For the same compound, the TGI in the experiment with EKVX NSCLC, with CCRF-CEM leukemia, in the experiment with NCI-H23 lung, in the experiment with COLO 205 colon, in the experiment on SNB-19 CNS and with HOP-62 NSCLC was more than 100 µM throughout.
With `O=C(O)CCCOc1cc(-c2ccccc2F)nc2cc3c(cc12)OCO3`, the TGI in the experiment on SK-MEL-5 melanoma, with RPMI-8226 leukemia, with SF-268 CNS, with SNB-75 CNS, in the experiment with M14 melanoma and in the experiment with EKVX NSCLC was more than 100 µM in each case. Besides, the TGI in the experiment on CCRF-CEM leukemia is 9.86 µM; in the experiment with OVCAR-4 ovarian, more than 100 µM; in the experiment with NCI-H23 lung, more than 100 µM; in the experiment with COLO 205 colon it was 27.4 µM; with HOP-62 NSCLC, more than 100 µM. Also, the GI50 with SF-268 CNS was 16.3 µM.
As for `O=C(NC(Nc1ccc(F)c(Cl)c1)(C(F)(F)F)C(F)(F)F)OCc1ccccc1`, the TGI is more than 100 µM with SK-MEL-5 melanoma; 54.1 µM in the experiment on UO-31 renal; 61.4 µM with RPMI-8226 leukemia; more than 100 µM in the experiment on SF-268 CNS; more than 100 µM with SNB-75 CNS; more than 100 µM in the experiment with M14 melanoma. The TGI with EKVX NSCLC was 83.6 µM; in the experiment with CCRF-CEM leukemia, more than 100 µM; in the experiment on NCI-H23 lung, more than 100 µM; with COLO 205 colon it was 35.1 µM; with SNB-19 CNS it was 51 µM; with HOP-62 NSCLC it was more than 100 µM.
For `CN(CCCNC(=O)c1nn(-c2ccc(Cl)cc2Cl)c2c1ccc1ccccc12)CCCNC(=O)c1nn(-c2ccc(Cl)cc2Cl)c2c1ccc1ccccc12`, the TGI is 3.42 µM in the experiment on SK-MEL-5 melanoma; 4.36 µM in the experiment on RPMI-8226 leukemia; 3.22 µM with SF-268 CNS; 3.18 µM in the experiment on SNB-75 CNS; 3.04 µM in the experiment on M14 melanoma; 3.29 µM in the experiment on EKVX NSCLC. In addition, the TGI stood at 5.7 µM in the experiment with CCRF-CEM leukemia; 3.21 µM with OVCAR-4 ovarian; 3.26 µM with NCI-H23 lung; 3.71 µM with COLO 205 colon; 2.89 µM in the experiment on SNB-19 CNS; 3.31 µM with HOP-62 NSCLC.
With `COC(=O)[C@@H]1C[C@@H]2c3ccccc3N(S(=O)(=O)c3ccccc3)[C@@H]2N1C(=O)OC`, the TGI in the experiment with SK-MEL-5 melanoma, in the experiment with UO-31 renal, in the experiment with RPMI-8226 leukemia, in the experiment on SF-268 CNS, in the experiment with SNB-75 CNS and in the experiment with EKVX NSCLC was more than 100 µM throughout. The TGI in the experiment with CCRF-CEM leukemia, with OVCAR-4 ovarian, in the experiment with NCI-H23 lung, in the experiment with COLO 205 colon, in the experiment on SNB-19 CNS and in the experiment on HOP-62 NSCLC was more than 100 µM throughout.
As for `Cc1ccc(S(=O)(=O)N2CCCC2C(=O)O[C@H]2CC[C@H]3CC=C[C@H]32)cc1` (some centres undefined), the TGI is 43.6 µM in the experiment with SK-MEL-5 melanoma; more than 100 µM in the experiment on UO-31 renal; 77.7 µM in the experiment on RPMI-8226 leukemia; more than 100 µM in the experiment with SF-268 CNS; more than 100 µM in the experiment on SNB-75 CNS; more than 100 µM with M14 melanoma. The TGI with EKVX NSCLC, in the experiment on CCRF-CEM leukemia, in the experiment with OVCAR-4 ovarian, in the experiment on NCI-H23 lung, with SNB-19 CNS and with HOP-62 NSCLC was more than 100 µM in each case.
